Reference: patent US20250108038A1 (priority 2023, published 2025)
“Also recorded” adds a separate entry of the source. Like-named read-outs stand apart in the source and are kept apart here.

Assays:
[1] = target: BSEP (Homo sapiens, UniProt O95342); experiment: Vesicular transport inhibition assay, BSEP (taurocholate); conditions: for Maximum % inhibition: BSEP, inside-out membrane vesicles, TC (0.2 μM), NIO: No inhibition observed
Procedure: Vesicular transport assays were performed with inside-out membrane vesicles prepared from cells overexpressing human ABC (efflux) transporters. The transporters were expressed by SOLVO Biotechnology in mammalian (HEK293) cells. The mammalian cells were stably transfected with the ABC transporter of interest. The assays were conducted according to the actual SOLVO VT assay protocols (PR-ASY-VT-General Protocol for Vesicular Transport Inhibition Assays).
The membrane vesicle suspension was mixed with the ice-cold transport buffer, then the probe substrate solution was added. […] (for BCRP and MDR1). […] Reactions were quenched by the addition of 200 μL of ice-cold washing buffer and immediate filtration via glass fiber filters mounted to a 96-well plate (filter plate). The filters were washed (5×200 μL of ice-cold washing buffer), dried and the amount of substrate inside the filtered vesicles was determined by liquid scintillation counting.
Incubation with AMP provided background activity values for all data points.

[2] = target: T1, OATP1B1 (Homo sapiens, UniProt Q9Y6L6); experiment: Uptake transporter inhibition assay, OATP1B1 (estradiol-17-β-glucuronide); conditions: for Maximum % inhibition: OATP1B1, HEK293 cells, E217βG (1 μM), NIO: no inhibition observed
T1 sequence (Q9Y6L6 1-691): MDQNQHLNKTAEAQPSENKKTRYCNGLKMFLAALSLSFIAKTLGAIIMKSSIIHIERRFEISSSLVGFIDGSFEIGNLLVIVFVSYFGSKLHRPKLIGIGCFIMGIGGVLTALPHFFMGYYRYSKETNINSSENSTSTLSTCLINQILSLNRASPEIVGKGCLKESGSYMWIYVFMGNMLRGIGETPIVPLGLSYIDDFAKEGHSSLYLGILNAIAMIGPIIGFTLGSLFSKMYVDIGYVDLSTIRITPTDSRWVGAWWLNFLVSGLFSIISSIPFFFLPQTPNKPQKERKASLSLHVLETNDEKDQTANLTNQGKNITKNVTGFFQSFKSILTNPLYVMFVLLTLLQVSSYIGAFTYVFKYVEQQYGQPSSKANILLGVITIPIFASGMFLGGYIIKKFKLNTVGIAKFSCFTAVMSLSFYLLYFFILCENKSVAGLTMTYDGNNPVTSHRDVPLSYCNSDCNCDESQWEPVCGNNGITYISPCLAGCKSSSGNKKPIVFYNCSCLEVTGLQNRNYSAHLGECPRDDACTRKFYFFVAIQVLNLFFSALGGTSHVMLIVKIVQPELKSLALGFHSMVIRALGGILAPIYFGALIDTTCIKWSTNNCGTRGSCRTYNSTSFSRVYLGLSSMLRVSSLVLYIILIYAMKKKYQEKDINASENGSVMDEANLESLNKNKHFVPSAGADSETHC
Procedure: Uptake experiments were performed using HEK293 cells stably expressing the respective uptake transporters. The assays were conducted according to the actual SOLVO uptake transporter assay protocols (PR-ASY-UPT-General Protocol for Uptake Transporter Inhibition Assays).
Cells were cultured at 37° C. in a humidified atmosphere containing 5% CO2 and were plated onto standard 96-well tissue culture plates.
Before the experiment, the medium was removed, and the cells were washed twice with 100 μL of pre-warmed (37° C.) assay buffer listed in Table 15. The cells were pre-incubated at 37° C. for 30 minutes in assay buffer containing the test article at appropriate concentrations (Table 16), appropriate solvents for solvent controls and the reference inhibitor for reference inhibitor wells. After the pre-incubation step solutions were removed. Uptake experiments were performed at 37° C. in 50 μL of assay buffer containing the probe substrate and the test article or solvent and controls.
After the experiment, cells were washed twice with 100 μL of appropriate cold buffer and lysed with 150 μL scintillation cocktail. Radiolabeled probe substrate transport was determined by liquid scintillation counting.
Uptake of the probe substrate in control cells provided background activity values for all data points.

[3] = tested on: orexin/tTA; Tet-O diphtheria toxin A mice (DTA mice); format: in vivo, mouse; conditions: for cataplexy (C) time: Compound I-19 0.3, 1, 3 mg/kg i.p., Compound I-4 0.3, 1, 3 mg/kg p.o., Des 5 mg/kg p.o.; for REM time: same doses; for latency to REM: vehicle about 100 min
[4] = Stability in components of rat blood; format: in vitro ADME; conditions: 0.5 mM, 37° C., 0-120 min
Procedure: FIG. 5A. […] Compound I-19 in components of rat blood. Red blood cells and plasma were isolated from whole blood. […] Values represent mean+SEM of n=3 separate experiments.
FIG. 5B. Stability of Compound I-4 in components of rat blood. Red blood cells and plasma were isolated from whole blood. […] Values represent mean+SEM of n=3 separate experiments.
Human and rat blood were centrifuged to separate out red blood cells at 1174×g for 15 min. The upper plasma level was aspirated with a micropipette and placed in a bleach solution for disposal. The RBC pellet was resuspended in sterile isotonic saline. The pellet was gently resuspended by rocking the tube. The sample was then centrifuged again to collect the RBC pellet and then resuspended and washed one more time following the same procedure. A total of three was done. Following the last wash and centrifugation, the RBCs were resuspended with PBS; and mixed by inversion. Aliquots of the resuspended and washed RBCs were then placed into 4 reaction tubes. These tubes were centrifuged to collect the RBCs. The fluid level was marked on each tube, then the supernatant was aspirated off and the cells resuspended with room temperature PBS pH 7.4 to the original mark. An aliquot of the RBC suspension was added to four sterile tubes containing PBS pH 7.4 at room temperature.
The stability of test articles in whole blood, red blood cells only, and plasma was done to determine stability in each blood compartment. 50 μL of test article was placed in each blood matrix. The final volume was 1 mL (0.5 mM). […] LCMSMS of parent compound was used to determine stability.

[5] = 0.14 μM nominal, follow-up assay
[6] = 1.24 μM nominal, follow-up assay
[7] = 11.11 μM nominal, follow-up assay
[8] = 33.33 μM nominal, follow-up assay
[9] = 100.00 μM nominal, follow-up assay
[10] = 2-concentration assay, up to 100 μM (Compound A up to 35 μM)
[11] = 0.14 μM nominal, 0.09 μM NSB corrected, follow-up assay
[12] = 1.24 μM nominal, 0.86 μM NSB corrected, follow-up assay
[13] = 10.00 μM nominal, 6.60 μM NSB corrected
[14] = 11.11 μM nominal, 7.89 μM NSB corrected, follow-up assay
[15] = 33.33 μM nominal, 24.33 μM NSB corrected, follow-up assay
[16] = 100.00 μM nominal, 77.00 μM NSB corrected
[17] = 100.00 μM nominal, 100.00 μM NSB corrected, follow-up assay
[18] = 2-concentration assay, up to 100 μM (Compound A up to 30 μM)
[19] = […] nominal, 1.89 μM NSB corrected, follow-up assay
[20] = last 6 h of the dark period (ZT19-ZT24)

BSEP, sequence (O95342 whole entry): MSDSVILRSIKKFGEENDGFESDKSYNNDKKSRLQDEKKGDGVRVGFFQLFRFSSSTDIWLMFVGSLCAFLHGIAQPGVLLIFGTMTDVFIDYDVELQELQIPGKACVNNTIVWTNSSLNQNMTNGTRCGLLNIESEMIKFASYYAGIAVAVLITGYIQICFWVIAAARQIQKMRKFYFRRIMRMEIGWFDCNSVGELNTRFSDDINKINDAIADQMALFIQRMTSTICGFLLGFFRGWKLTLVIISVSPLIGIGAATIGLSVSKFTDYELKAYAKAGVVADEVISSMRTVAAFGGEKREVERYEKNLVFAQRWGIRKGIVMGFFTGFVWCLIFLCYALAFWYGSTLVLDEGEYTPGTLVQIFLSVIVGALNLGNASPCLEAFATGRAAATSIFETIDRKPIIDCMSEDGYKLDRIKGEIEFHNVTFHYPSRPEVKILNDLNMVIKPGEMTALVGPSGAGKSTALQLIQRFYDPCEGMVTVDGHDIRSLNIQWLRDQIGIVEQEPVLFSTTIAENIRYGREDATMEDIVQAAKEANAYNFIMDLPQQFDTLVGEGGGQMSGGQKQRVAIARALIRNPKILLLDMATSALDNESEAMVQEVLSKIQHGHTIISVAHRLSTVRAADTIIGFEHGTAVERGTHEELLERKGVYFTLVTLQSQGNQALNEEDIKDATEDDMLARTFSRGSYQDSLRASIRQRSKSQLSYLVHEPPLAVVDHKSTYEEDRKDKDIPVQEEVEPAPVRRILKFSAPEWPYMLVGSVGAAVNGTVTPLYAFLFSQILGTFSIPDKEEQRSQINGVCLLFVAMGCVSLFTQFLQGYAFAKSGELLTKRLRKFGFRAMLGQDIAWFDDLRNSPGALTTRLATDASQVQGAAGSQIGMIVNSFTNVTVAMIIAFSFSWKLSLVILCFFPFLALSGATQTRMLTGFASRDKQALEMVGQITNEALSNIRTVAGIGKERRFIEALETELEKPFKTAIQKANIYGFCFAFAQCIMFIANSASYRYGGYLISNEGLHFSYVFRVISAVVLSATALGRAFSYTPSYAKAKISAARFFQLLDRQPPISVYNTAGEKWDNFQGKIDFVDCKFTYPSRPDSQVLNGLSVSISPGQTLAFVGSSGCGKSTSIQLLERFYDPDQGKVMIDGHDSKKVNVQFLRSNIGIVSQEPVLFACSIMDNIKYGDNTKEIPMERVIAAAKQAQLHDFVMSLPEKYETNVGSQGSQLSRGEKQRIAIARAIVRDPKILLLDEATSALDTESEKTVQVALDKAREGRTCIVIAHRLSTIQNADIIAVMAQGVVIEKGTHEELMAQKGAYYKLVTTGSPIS

## Clc1ccc(C2(OCC3OCCO3)c3ccccc3C3=NCCN32)cc1 (stereo not drawn) [Compound I-19]
[1]; [5]
  ATP-dependent transport: 5,664.33 ± 228.93 cpm
  Relative ATP-dependent transport: 114.35 ± 6.07 % of control
  Relative inhibition: −14%
[1]; [6]
  ATP-dependent transport: 4,919.33 ± 50.10 cpm
  Relative ATP-dependent transport: 99.31 ± 4.70 % of control
  Relative inhibition: 1%
[1]; 10.00 μM nominal
  ATP-dependent transport: 4,410.33 ± 297.54 cpm
  Relative ATP-dependent transport: 90.09 ± 6.36 % of control
  Relative inhibition: 10%
[1]; [7]
  ATP-dependent transport: 4,442.00 ± 98.02 cpm
  Relative ATP-dependent transport: 89.68 ± 4.59 % of control
  Relative inhibition: 10%
[1]; [8]
  ATP-dependent transport: 3,105.00 ± 99.98 cpm
  Relative ATP-dependent transport: 62.69 ± 3.53 % of control
  Relative inhibition: 37%
[1]; 100.00 μM nominal
  ATP-dependent transport: 1,103.00 ± 205.45 cpm
  Relative ATP-dependent transport: 22.53 ± 4.22 % of control
  Relative inhibition: 77%
[1]; [9]
  ATP-dependent transport: 1,333.33 ± 146.13 cpm
  Relative ATP-dependent transport: 26.92 ± 3.20 % of control
  Relative inhibition: 73%
[1]; [10]
  maximum inhibition of BSEP-mediated taurocholate accumulation: 77%
[1]
  Maximum % inhibition: 73%
[1]; follow-up assay
  maximum inhibition of BSEP-mediated taurocholate accumulation: 73%
[1]; follow-up assay, bottom constrained to 0
  IC50: 45.3 µM
[2]; [11]
  Relative inhibition: 0%
  Relative transporter specific accumulation: 99.91 ± 3.20 % of control
  Transporter specific accumulation: 2,252.33 ± 16.07 cpm
[2]; [12]
  Relative inhibition: 3%
  Relative transporter specific accumulation: 96.63 ± 3.76 % of control
  Transporter specific accumulation: 2,178.33 ± 50.48 cpm
[2]; [13]
  Relative inhibition: 25%
  Relative transporter specific accumulation: 75.21 ± 2.39 % of control
  Transporter specific accumulation: 2,303.00 ± 45.84 cpm
[2]; [14]
  Relative inhibition: 23%
  Relative transporter specific accumulation: 77.32 ± 2.52 % of control
  Transporter specific accumulation: 1,743.00 ± 16.09 cpm
[2]; [15]
  Relative inhibition: 50%
  Relative transporter specific accumulation: 49.83 ± 2.48 % of control
  Transporter specific accumulation: 1,123.33 ± 43.53 cpm
[2]; [16]
  Relative inhibition: 87%
  Relative transporter specific accumulation: 12.92 ± 0.41 % of control
  Transporter specific accumulation: 395.67 ± 8.05 cpm
[2]; [17]
  Relative inhibition: 83%
  Relative transporter specific accumulation: 16.93 ± 0.58 % of control
  Transporter specific accumulation: 381.67 ± 5.50 cpm
[2]; [18]
  maximum inhibition of OATP1B1-mediated E217βG accumulation: 87%
[2]
  Maximum % inhibition: 83%
[2]; [19]
  Relative inhibition: 5%
  Relative transporter specific accumulation: 95.49 ± 3.39 % of control
  Transporter specific accumulation: 2,152.67 ± 36.09 cpm
[2]; follow-up assay
  maximum inhibition of OATP1B1-mediated E217βG accumulation: 83%
[2]; follow-up assay, NSB-corrected concentrations
  IC50: 31.4 µM
[3]; 6 h after dosing at ZT12
  body temperature (Tb): No significant effects
  locomotor activity (LMA): No significant effects
  total W or NREM time: No significant effects on total W or NREM were observed
  cataplexy (C) time: Total C time significantly decreased following all three concentrations
  REM time: REM time significantly decreased following Compound I-19 at the two highest doses (1 and 3 mg/kg)
[3]; Compound I-19 1 mg/kg i.p.
  REM:NR ratio: ~0.2
  latency to REM: ~275 min
[3]; Compound I-19 3 mg/kg i.p.
  REM:NR ratio: ~0.1
  latency to REM: ~325 min
[3]; [20]
  cataplexy (C), hourly, cumulative and total time: significantly less following the high concentration of Compound I-19 (3 mg/kg)
  time in W, NREM or REM: not different from Veh
[4]; rat plasma
  % parent compound remaining: small time-dependent decrease in the amount of parent compound present
[4]; rat red blood cells
  % parent compound remaining: small time-dependent decrease in the amount of parent compound present
[4]; rat whole blood
  % parent compound remaining: small time-dependent decrease in the amount of parent compound present

## OC1(c2ccc(Cl)cc2)c2ccccc2C2=NCCN21 (stereo not drawn) [Compound A, 5-(4-chlorophenyl)-2,3-dihydroimidazo[1,2-b]isoindol-5-ol, reference compound]
[1]; [10]
  maximum inhibition of BSEP-mediated taurocholate accumulation: did not inhibit; also recorded: not an in vitro inhibitor
[1]
  Maximum % inhibition: NIO
[1]; human
  inhibition at 35 μM: 2%
[2]; 3.00 μM nominal, E217βG, Table 119
  Relative transporter specific accumulation: 96.77 ± 2.48 % of control
[2]; 30.00 μM nominal, E217βG, Table 119
  Relative transporter specific accumulation: 94.38 ± 2.14 % of control
[2]; [18]
  maximum inhibition of OATP1B1-mediated E217βG accumulation: did not inhibit; also recorded: not an in vitro inhibitor
[2]
  Maximum % inhibition: NIO
[2]; human
  inhibition at 3 μM: 3%
  inhibition at 30 μM: 6%

## COCCOC1(c2ccc(Cl)cc2)c2ccccc2C2=NCCN21 (stereo not drawn) [Compound I-4]
[3]; 6 h after dosing at ZT12
  REM:NR ratios (effect): decreased REM:NR ratios
  W consolidation (W bout duration, number of W bouts): Compound I-4 at 3 mg/kg consolidated W
  body temperature (Tb): No significant effects on Tb were found
  latency to REM (effect): Compound I-4 at 3 mg/kg significantly (p<0.05) increased the latency to REM
  locomotor activity (LMA): increased significantly overall
  total W or NREM time: without any significant effects on total W or NREM
  cataplexy (C) time: significantly (p<0.05) decreased following Compound I-4 at the two highest doses (1 and 3 mg/kg)
  REM time: significantly (p<0.05) decreased following Compound I-4 at the two highest doses (1 and 3 mg/kg)
[4]; rat plasma
  % parent compound remaining: no significant change in the amount of parent compound
[4]; rat red blood cells
  % parent compound remaining: small time-dependent decrease in the amount of parent compound remaining
[4]; rat whole blood
  % parent compound remaining: small time-dependent decrease in the amount of parent compound remaining
